Here are results for three compounds from patent publication US20240271213A1, “METHODS AND COMPOSITIONS COMPRISING FUNCTIONAL GENOMICS OF HIBERNATING MAMMALS” (Fauna Bio Incorporated, priority 2021, published 2024).

One series has as its system SH-SY5Y cells. As to the kind of experiment: Aβ1-42 induced toxicity in SH-SY5Y cells, viability by MTT. In kind it is cell-based, human. The note with it: Aβ1-42 peptide added, vs vehicle control. The source says: Alzheimer's disease progression features the accumulation of two protein aggregates: β-amyloid (Aβ) and tau; these play crucial roles in neuronal loss or dysfunction in Alzheimer's disease. To mimic pathogenesis of Alzheimer's disease, we used in vitro cell models that focus on Aβ-induced toxicity and tau hyperphosphorylation. SH-SY5Y human neuroblastoma cells (American Type Culture Collection; ATCC) were purchased and grown in appropriate culture medium. First, OE/KD and WT SH-SY5Y cells were equally seeded in wells of 96-well plates. Human SH-SY5Y neuroblastoma cells were successfully differentiated into mature neurons by incubating cells in retinoic acid and N2 supplement for 9 days (FIG. 16). These can be distinguished from the original SH-SY5Y cells, which are prone to grow in clusters and extend short neurites at edges of the clusters. […] Aβ-induced toxicity was examined by adding Aβ1-42 peptide to both WT and OE/KD cells. Aβ1-42 induced cell death in WT cells. […] To validate potential neuroprotective compounds identified by the integrated gene networks described above, in vitro assays were conducted with SH-SY5Y cells. Aβ-induced toxicity was examined by adding Aβ1-42 peptide to cells treated with vehicle control or test compounds (FIG. 19). […] Tau hyperphosphorylation was also examined, by exposing the SH-SY5Y cells to hypothermic conditions (30° C.).

Series [1] deals with AC16 cells. The series can be described thus: Reactive oxygen species (ROS) production in AC16 cells. Type of series: cell-based, human. The note with it: AC16 cells following incubation with compound.
Series [2] relates to AC16 cells. As to the kind of experiment: Ischemia-reperfusion assay in AC16 cells, cell viability. In kind it is cell-based, human. The note with it: 16 hours ischemia, 4 hours reperfusion, compound added prior to ischemia. The procedure:
FIG. 18A is a graph showing in vitro cell viability of AC16 cells following 16 hrs ischemia and 4 hrs reperfusion and incubated with different concentrations of a compound identified for neuroprotection, Triptolide.
(§1) For ischemia-reperfusion assays, de-oxygenated serum free medium was prepared by adding 1% penicillin-streptomycin into glucose-free DMEM; the medium was contacted for 5 mins with 5% CO2 and 95% N2; and the medium was then warmed in a 37° C. bath. Cells were then washed with warm PBS to completely remove normal culture medium. PBS was aspirated and deoxygenated serum free medium was added into plates (100 μl was added for each well of 96-well plate). To mimic myocardial ischemia, cells in the experiment plate were subjected to ischemia by culturing them in glucose and serum free-medium and hypoxic conditions (5% CO2 and 95% N2). Plates were placed in a hypoxia chamber and air-tight lock; the chamber was filled with 5% CO2 and 95% N2 until oxygen level is 0%, and then the chamber was placed in the incubator for a duration of ischemia time. […] Cell viability was determined by MTT assay The control cells were considered to be 100% viable; changes in viability in the experiment plates were measured relative to the control. […]

Series [3] has as its system AC16 cells. As to the kind of experiment: Ischemia-reperfusion assay in AC16 cells, cell damage (LDH activity). In kind it is cell-based, human. The note with it: 16 hours ischemia, 4 hours reperfusion, compound added prior to ischemia. As for the experimental part:
FIG. 18B is a graph showing a decrease in cell damage response (LDH activity) of AC16 cells following 16 hrs ischemia and 4 hrs reperfusion and incubated with different concentrations of Triptolide.
as §1, with “time. The duration of ischemia was 21 hours for H9C2 cells; 29 hours for differentiated SH-SY5Y cells; 16 hours for AC16 cells; and 16 hours for native SH-SY5Y cells.” for “time.”

For another series, the system named is H9C2 cells. The series can be described thus: Ischemia-reperfusion assay in H9C2 cells, viability by MTT. In kind it is cell-based, rat. The note with it: melatonin added at start of ischemia, control wells ~75% viable, normoxic control = 100%. The procedure:
FIG. 17 is a graph illustrating results of an in vitro validation assay for ischemia-reperfusion injury in H9C2 cells. H9C2 cells were exposed to ischemia for […] and reperfusion for 4 hrs were contacted with differing concentrations of melatonin at the start of ischemia. Viability was measured using the MTT assay. Data are expressed as the mean +/− standard deviation in experiments performed in triplicate. * p<0.05 and ** […] compared to vehicle control.
as §1, with “N2).” for “N2). Plates were placed in a hypoxia chamber and air-tight lock; the chamber was filled with 5% CO2 and 95% N2 until oxygen level is 0%, and then the chamber was placed in the incubator for a duration of ischemia time.”

On to `CC12CC3CC(C)(C1)CC(N)(C3)C2` [Memantine], for which, in the series on SH-SY5Y cells, the “cell viability under Aβ1-42 toxicity (MTT)” value is listed as “increase in cell viability”.

As to `CC(C)[C@]12O[C@H]1[C@@H]1O[C@]13[C@]1(O[C@H]1C[C@H]1C4=C(CC[C@@]13C)C(=O)OC4)[C@@H]2O` [Triptolide], in the series with AC16 cells [1], the “production of reactive oxygen species (ROS)” value is “decrease production of reactive oxygen species (ROS)”. For the same compound, the “cell viability after ischemia-reperfusion” value in the series on AC16 cells [2] is “increased cell viability”. Moreover, the “cell damage (LDH activity) after ischemia-reperfusion” value in the series on AC16 cells [3] is recorded as “reduced cell damage”. `COc1ccc2[nH]cc(CCNC(C)=O)c2c1` [melatonin]: the “viable cells after ischemia-reperfusion (MTT)” value in the series on H9C2 cells is given as approximately 90%.
